Key:
Assay in all cases: drug sensitivity score (DSS) from 5-point dose-response viability curve (DSS (area-under-curve based score)); higher = more sensitive (stronger growth inhibition or killing); extreme values may be limits of the assay
Conditions in all cases: exposure time: 72 h; concentration range: 5 concentrations over 10,000-fold range
JHOS2 = system: JHOS2
Outline: (§1)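 Each cell line and drug received a drug sensitivity score from Breeze software, where higher means more sensitive. Zero stands for no response. Scores came from CellTiter-Glo viability readings of ovarian cancer and normal ovarian cells, 1,500 per well in 384-well plates, after 3 days at 37°C, 5% CO2 with drugs at five concentrations over a 10,000-fold range.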

COV318 = system: COV318
Outline: as §1

Kuramochi = system: Kuramochi
Outline: as §1

CAOV3 = system: CAOV3
Outline: as §1

OV90 = system: OV90
Outline: as §1

HOSE2C = system: HOSE2C
Outline: as §1

OVCAR5 = system: OVCAR5
Outline: as §1

OVCAR8 = system: OVCAR8
Outline: as §1

HOSE1C = system: HOSE1C
Outline: as §1

OVCAR4 = system: OVCAR4
Outline: as §1

Ovsaho = system: Ovsaho
Outline: as §1

COV362 = system: COV362
Outline: as §1

SMILES	drug sensitivity score (JHOS2)	drug sensitivity score (COV318)	drug sensitivity score (Kuramochi)	drug sensitivity score (CAOV3)	drug sensitivity score (OV90)	drug sensitivity score (HOSE2C)	drug sensitivity score (OVCAR5)	drug sensitivity score (OVCAR8)	drug sensitivity score (HOSE1C)	drug sensitivity score (OVCAR4)	drug sensitivity score (Ovsaho)	drug sensitivity score (COV362)
COc1cccc2c1C(=O)c1c(O)c3c(c(O)c1C2=O)C[C@@](O)(C(=O)CO)C[C@@H]3O[C@H]1C[C@H](N)[C@H](O)[C@H](C)O1 [Doxorubicin]	5.9	3.6	6.2	8.6	6.7	0	4.6	8.8	0	3.5	7.6	2.3
C[C@H](Nc1ncnc2nc[nH]c12)c1cc2cccc(Cl)c2c(=O)n1-c1ccccc1 [Duvelisib]	0	0	2	0.1	0	0	0	0	0.2	0.7	1.4	0
Cc1ccc(NS(=O)(=O)c2cccc(C#N)c2)c2[nH]cc(C#N)c12 [E7820]	10.7	2.8	0.8	4.8	2.7	5	3.3	3.3	7.3	4.4	1.2	0
Cc1cc(Nc2cc(N3CCN(C)CC3)nc(/C=C/c3ccccc3)n2)n[nH]1 [ENMD-2076]	5.1	4.9	8.5	10.3	8.4	10.3	9.6	8	7.7	5.8	8.8	6.3
Cc1cc(C)c(CNC(=O)c2cc(-c3ccc(CN4CCOCC4)cc3)cc3c2cnn3C2CCCC2)c(=O)[nH]1 [EPZ-5687]	0	0	0	0	0	0	1.8	0	0	0	0	1.1
NC(=O)/C(=C/n1cnc(-c2cc(C(F)(F)F)cc(C(F)(F)F)c2)n1)c1cncnc1 [Eltanexor]	19	7.5	10.9	18.9	13.2	15.7	14.8	21.5	34.6	13.7	19.3	10.9
CC(C)(O)CNc1nc(Nc2ccnc(C(F)(F)F)c2)nc(-c2cccc(C(F)(F)F)n2)n1 [Enasidenib]	0	0	0	0	0	0	0	0.9	0	0	0	1.1
COC(=O)N[C@@H](C)CNc1nccc(-c2cn(C(C)C)nc2-c2cc(Cl)cc(NS(C)(=O)=O)c2F)n1 [Encorafenib]	0.1	0	0	0.3	5.6	0.5	0	0	0	0	0.1	0
C[C@@H]1CN(C(=O)c2ccc(NC(=O)c3cc(O[C@H](C)c4c(Cl)ccc(F)c4Cl)c(N)nn3)cc2)C[C@H](C)N1 [Ensartinib]	0	0	0	1.5	0.1	1.9	1.8	0	0.5	0	0	0
Nc1ccccc1NC(=O)c1ccc(CNC(=O)OCc2cccnc2)cc1 [Entinostat]	4.7	4.3	3.2	5.5	7.4	11.8	9.9	9.3	17.3	4.3	2.4	0
c1cn2cc(-c3ccc4cn[nH]c4c3)nc(Nc3ccc(N4CCOCC4)cc3)c2n1 [Entospletinib]	0.1	0	0	0	0	0	1.3	1.7	0	0	0	0
CN1CCN(c2ccc(C(=O)Nc3n[nH]c4ccc(Cc5cc(F)cc(F)c5)cc34)c(NC3CCOCC3)c2)CC1 [Entrectinib]	0	0	0	0.6	0	0	1	0	0.1	1	1.5	0.1
CNC(=O)c1ccc(N2C(=S)N(c3ccc(C#N)c(C(F)(F)F)c3)C(=O)C2(C)C)cc1F [Enzalutamide]	0	0.4	1.7	0	0	0	0.2	0	0	0.1	2.3	0
Cn1cc(C2=C(c3cn(C4CCN(Cc5ccccn5)CC4)c4ccccc34)C(=O)NC2=O)c2ccccc21 [Enzastaurin]	0.1	0	0	0	0	1.5	2.6	4.2	0.2	0	2	1.6
NS(=O)(=O)NCCNc1nonc1/C(=N/O)Nc1ccc(F)c(Br)c1 [Epacadostat]	0.9	1	0	0	0.4	0	0.3	0	0	0	0.1	0

From the supplement of paper PMC11616607
